From ChEMBL document CHEMBL1201862, “PubChem BioAssay data set” (2004)
Activity calls are given as the source filed them.

Experiments:
[1] = biological target: DNA dC->dU-editing enzyme APOBEC-3A (Homo sapiens, UniProt P31941); assay: A3A deaminase inhibition for selectivity – biochemical, dose response (AID 504722); format: functional
[2] = biological target: DNA dC->dU-editing enzyme APOBEC-3G (Homo sapiens, UniProt Q9HC16); assay: Dose Response confirmation of small molecule APOBEC3G DNA Deaminase Inhibitors via a fluorescence-based single-stranded DNA deaminase assay. [Related pubchem assays (depositor defined):AID493012, AID493028]; format: functional
Aminopeptidase N = biological target: T1, Aminopeptidase N (Plasmodium falciparum FcB1/Columbia, UniProt O96935); assay: malaria alanyl aminopeptidase activity blockers – biochemical, fluorogenic H-Leu-NHMec substrate, 1536-well (AID 1445); design: species or system Plasmodium falciparum 3D7, 3D7
T1 sequence (O96935 whole entry): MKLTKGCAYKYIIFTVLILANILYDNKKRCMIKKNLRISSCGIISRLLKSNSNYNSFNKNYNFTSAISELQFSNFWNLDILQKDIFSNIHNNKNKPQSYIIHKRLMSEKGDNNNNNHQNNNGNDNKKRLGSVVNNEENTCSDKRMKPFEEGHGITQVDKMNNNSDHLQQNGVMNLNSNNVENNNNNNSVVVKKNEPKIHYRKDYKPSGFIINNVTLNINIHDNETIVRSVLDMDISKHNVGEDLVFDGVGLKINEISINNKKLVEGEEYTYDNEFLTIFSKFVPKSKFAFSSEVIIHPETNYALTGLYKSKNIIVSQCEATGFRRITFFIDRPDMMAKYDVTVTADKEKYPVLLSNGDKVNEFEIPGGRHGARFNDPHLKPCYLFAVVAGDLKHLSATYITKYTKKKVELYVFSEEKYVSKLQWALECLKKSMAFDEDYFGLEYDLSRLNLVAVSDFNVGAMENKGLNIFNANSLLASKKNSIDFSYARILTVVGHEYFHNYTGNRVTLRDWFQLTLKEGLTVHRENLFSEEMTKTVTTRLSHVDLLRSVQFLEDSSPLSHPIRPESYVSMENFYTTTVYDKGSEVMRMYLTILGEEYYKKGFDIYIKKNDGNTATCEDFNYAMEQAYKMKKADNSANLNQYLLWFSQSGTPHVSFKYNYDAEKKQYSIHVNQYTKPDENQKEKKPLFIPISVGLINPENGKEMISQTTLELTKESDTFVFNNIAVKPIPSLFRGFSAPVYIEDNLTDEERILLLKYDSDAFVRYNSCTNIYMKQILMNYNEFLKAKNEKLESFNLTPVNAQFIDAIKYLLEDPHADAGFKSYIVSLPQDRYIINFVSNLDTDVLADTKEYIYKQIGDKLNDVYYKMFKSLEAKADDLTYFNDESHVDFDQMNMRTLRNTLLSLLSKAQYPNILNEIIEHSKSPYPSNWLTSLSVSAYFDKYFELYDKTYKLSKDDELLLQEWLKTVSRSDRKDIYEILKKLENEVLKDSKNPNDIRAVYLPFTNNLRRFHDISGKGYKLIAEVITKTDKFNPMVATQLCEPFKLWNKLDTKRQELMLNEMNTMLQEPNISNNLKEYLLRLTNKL

[3] = biological target: 26S proteasome non-ATPase regulatory subunit 14 (Homo sapiens, UniProt O00487); assay: inhibition of proteasome subunit RPN11 – biochemical, fluorescence polarization, uHTS hits, confirmation (AID 602368); format: functional
[4] = biological target: 72 kDa type IV collagenase (Homo sapiens, UniProt P08253); assay: Dose Response validation of uHTS RPN11 inhibitor hits using a MMP-2 Fluorescence assay.; format: functional
Prothrombin = Prothrombin (Bos taurus, UniProt P00735); assay: thrombin protease inhibitors – biochemical, fluorescence polarization, uHTS hits, dose response (AID 602369); format: functional
[5] = biological target: Peroxisome proliferator-activated receptor gamma/Nuclear receptor coactivator 1 (Homo sapiens, UniProt P37231); assay: (§1) TR-FRET dose response biochemical High Throughput Screening assay for agonists of the steroid receptor coactivator 1 (SRC-1) recruitment by the peroxisome proliferator-activated receptor gamma (PPAR gamma): non-selective agonists. [Related pubchem assays (depositor defined):AID1300, AID1808, AID504735, AID631]; format: protein assay
[6] = biological target: Peroxisome proliferator-activated receptor gamma/Nuclear receptor coactivator 3 (Homo sapiens, UniProt P37231); assay: as §1, with “3 (SRC-3)” for “1 (SRC-1)”, “assays: 1301 (Confirmation screen.), 1048 (Primary screen.)]” for “assays (depositor defined):AID1300, AID1808, AID504735, AID631]”; format: functional
[7] = biological target: Peroxisome proliferator-activated receptor gamma/Nuclear receptor coactivator 2 (Homo sapiens, UniProt P37231); assay: TR-FRET dose response biochemical High Throughput Screening assay for agonists of the steroid receptor coactivator 2 (SRC-2) recruitment by the peroxisome proliferator-activated receptor gamma (PPAR gamma): non-selective agonists. [Related pubchem assays: 1297, 1032 ]; format: functional
[8] = biological target: G-protein coupled receptor 55 (Homo sapiens, UniProt Q9Y2T6); assay: selective activators of receptor GPR55 – imaging, U2OS cells, beta-arrestin-GFP redistribution, primary screen (AID 1961); format: functional
[9] = Luminescence Cell-Based Dose Confirmation HTS to Identify Activators of 5'UTR Stem-Loop Driven Alpha-Synuclein mRNA Translation in H4 Neuroglioblastoma Cells. [Related pubchem assays: 1829 (Project Summary), 1814 (Primary HTS)]; format: functional
[10] = Luminescence Cell-Based Dose Response HTS to Identify Activators of Luciferase Translation or Activity in H4 […] Cells. [Related pubchem assays: 1829 (Project Summary), 1814 (Primary HTS)]; format: functional
H4 = assay: Luminescence Cell-Based Dose Response HTS to Identify Activators of 5'UTR Stem-Loop Driven Prion Protein mRNA Translation in H4 Neuroglioblastoma Cells. [Related pubchem assays: 1829 (Project Summary), 1814 (Primary HTS)]; format: functional; conditions: Homo sapiens
Beta-galactosidase = Beta-galactosidase (Escherichia coli, UniProt Q8VNN2); assay: PubChem AID 485352; format: functional
[11] = biological target: T2, Type-1 angiotensin II receptor (Homo sapiens, UniProt P30556); assay: antagonism of angiotensin II type 1 receptor – cell-based, uHTS hits, selectivity assay for APJ receptor antagonist project, dose response (AID 463214); format: functional;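 also: antagonist potency against angiotensin II stimulated AT1 response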
T2 sequence (P30556 whole entry): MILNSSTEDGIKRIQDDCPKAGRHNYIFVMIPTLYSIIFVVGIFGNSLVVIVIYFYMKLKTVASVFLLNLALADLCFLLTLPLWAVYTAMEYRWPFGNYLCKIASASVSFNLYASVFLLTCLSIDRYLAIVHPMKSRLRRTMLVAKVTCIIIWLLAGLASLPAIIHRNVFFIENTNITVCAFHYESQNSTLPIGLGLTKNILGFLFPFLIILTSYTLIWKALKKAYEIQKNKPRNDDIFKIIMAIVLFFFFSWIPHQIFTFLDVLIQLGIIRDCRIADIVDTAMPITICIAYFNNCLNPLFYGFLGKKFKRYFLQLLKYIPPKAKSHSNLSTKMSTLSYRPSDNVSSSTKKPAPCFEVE

Vero = assay: cells; format: functional; conditions: Chlorocebus sabaeus
SN12K1 = assay: cells; format: functional; conditions: Homo sapiens
INS1 = assay: INS-1E survival protection against cytokine death – cell-based, luminescence, retest, dose response (AID 449756); format: functional; conditions: Rattus norvegicus;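 also: cell death triggered by IL-1 beta plus TNF-alpha plus IFN-gamma mixture; protective hits raise ATP signal compared with cytokine alone wells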
BJ [12] = assay: BJ-TERT fibroblast viability loss – cell-based, RAS-independent, luminescence, dose response (AID 1933); format: functional; conditions: Homo sapiens
BJ [13] = assay: cells; format: functional, cell-based; conditions: Homo sapiens
BJ [14] = assay: BJ-TERT-LT-ST fibroblast viability loss – cell-based, RAS-independent, luminescence, dose response (AID 1935); format: functional; conditions: Homo sapiens;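 also: BJ fibroblasts immortalized with TERT plus LT and ST oncogenes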
[15] = DRD fibroblast viability loss – cell-based, non-viral oncogenic, luminescence, dose response (AID 1934); format: functional; conditions: Homo sapiens
[16] = biological target: Heat shock protein HSP 90-alpha (Homo sapiens, UniProt P07900); format: functional, organism-based
BJ [17] = assay: growth inhibition of engineered Ras-driven BJ cells – cell-based, alamar blue fluorescence, cherrypicked samples, dose response (AID 2631); format: functional; conditions: Homo sapiens;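 also: confirmatory dose-response assay in RAS-dependent BJ fibroblasts engineered with TERT, LT and ST, with cytotoxicity read by fluorescence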

G-protein coupled receptor 55, sequence (Q9Y2T6 whole entry): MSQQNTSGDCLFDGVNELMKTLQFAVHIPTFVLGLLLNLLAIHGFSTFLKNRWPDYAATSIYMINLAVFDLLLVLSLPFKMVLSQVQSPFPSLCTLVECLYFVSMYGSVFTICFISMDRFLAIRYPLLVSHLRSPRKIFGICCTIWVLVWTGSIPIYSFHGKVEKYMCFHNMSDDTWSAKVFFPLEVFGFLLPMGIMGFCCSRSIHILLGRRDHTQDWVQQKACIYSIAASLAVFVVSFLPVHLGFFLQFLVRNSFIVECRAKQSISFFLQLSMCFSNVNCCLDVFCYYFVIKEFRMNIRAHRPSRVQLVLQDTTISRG
Beta-galactosidase, sequence (Q8VNN2 whole entry): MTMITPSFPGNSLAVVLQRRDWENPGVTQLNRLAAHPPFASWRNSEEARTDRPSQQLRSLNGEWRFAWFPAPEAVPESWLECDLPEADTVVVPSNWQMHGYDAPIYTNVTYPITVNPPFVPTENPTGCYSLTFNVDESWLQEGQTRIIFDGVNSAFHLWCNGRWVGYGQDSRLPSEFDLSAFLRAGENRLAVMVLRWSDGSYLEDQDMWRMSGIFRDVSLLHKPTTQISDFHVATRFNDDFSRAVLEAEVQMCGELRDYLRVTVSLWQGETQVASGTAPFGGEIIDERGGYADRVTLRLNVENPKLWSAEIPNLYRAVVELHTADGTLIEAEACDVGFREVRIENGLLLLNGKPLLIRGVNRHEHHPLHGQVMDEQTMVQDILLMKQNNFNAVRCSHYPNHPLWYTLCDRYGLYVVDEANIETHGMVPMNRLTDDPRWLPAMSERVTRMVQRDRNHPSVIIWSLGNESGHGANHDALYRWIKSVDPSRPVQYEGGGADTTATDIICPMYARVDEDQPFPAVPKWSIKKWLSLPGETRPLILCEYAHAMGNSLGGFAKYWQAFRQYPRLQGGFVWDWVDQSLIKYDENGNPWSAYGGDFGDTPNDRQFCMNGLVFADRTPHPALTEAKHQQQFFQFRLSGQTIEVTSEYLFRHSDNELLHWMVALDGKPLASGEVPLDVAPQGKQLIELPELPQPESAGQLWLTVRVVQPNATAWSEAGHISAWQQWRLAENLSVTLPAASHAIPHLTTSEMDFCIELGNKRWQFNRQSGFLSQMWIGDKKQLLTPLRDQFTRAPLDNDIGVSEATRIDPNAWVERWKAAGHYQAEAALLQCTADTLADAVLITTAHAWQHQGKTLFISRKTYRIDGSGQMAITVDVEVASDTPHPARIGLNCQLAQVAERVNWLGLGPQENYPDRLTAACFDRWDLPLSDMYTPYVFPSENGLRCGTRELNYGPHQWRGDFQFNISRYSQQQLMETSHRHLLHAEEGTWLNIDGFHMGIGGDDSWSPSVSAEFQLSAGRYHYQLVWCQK
72 kDa type IV collagenase, sequence (P08253 whole entry): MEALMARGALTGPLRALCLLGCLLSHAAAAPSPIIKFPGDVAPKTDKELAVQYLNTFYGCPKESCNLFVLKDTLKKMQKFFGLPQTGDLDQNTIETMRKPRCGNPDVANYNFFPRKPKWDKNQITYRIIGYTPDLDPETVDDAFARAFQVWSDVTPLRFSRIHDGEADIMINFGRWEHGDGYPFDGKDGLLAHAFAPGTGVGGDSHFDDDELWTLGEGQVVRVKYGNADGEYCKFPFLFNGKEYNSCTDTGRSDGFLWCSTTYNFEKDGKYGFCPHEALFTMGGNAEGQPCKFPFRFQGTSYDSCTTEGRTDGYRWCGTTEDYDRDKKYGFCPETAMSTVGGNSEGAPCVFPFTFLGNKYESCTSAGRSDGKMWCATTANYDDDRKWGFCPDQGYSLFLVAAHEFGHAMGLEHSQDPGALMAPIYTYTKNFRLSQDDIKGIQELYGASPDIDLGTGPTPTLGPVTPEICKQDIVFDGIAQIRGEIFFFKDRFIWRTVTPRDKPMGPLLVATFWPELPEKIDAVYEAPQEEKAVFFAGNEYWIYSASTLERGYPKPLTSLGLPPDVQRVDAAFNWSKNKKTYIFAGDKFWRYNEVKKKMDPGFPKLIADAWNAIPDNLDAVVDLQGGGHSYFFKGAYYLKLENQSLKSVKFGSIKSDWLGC
DNA dC->dU-editing enzyme APOBEC-3A, sequence (P31941 whole entry): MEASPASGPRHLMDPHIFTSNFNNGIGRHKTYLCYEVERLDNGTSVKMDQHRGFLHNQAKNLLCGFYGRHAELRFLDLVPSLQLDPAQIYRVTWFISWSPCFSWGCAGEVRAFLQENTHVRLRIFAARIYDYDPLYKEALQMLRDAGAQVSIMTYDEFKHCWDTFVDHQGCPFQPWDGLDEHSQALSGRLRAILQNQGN
DNA dC->dU-editing enzyme APOBEC-3G, sequence (Q9HC16 whole entry): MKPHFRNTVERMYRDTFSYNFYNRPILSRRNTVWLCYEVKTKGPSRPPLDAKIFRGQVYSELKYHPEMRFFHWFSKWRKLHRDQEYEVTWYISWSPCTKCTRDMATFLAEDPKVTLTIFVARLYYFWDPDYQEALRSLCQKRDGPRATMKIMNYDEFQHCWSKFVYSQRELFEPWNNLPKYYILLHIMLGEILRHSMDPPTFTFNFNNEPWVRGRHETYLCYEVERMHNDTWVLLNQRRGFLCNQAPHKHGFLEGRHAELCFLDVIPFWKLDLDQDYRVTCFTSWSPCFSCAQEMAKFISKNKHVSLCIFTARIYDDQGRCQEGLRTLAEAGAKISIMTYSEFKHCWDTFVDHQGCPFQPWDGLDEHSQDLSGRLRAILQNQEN
26S proteasome non-ATPase regulatory subunit 14, sequence (O00487 whole entry): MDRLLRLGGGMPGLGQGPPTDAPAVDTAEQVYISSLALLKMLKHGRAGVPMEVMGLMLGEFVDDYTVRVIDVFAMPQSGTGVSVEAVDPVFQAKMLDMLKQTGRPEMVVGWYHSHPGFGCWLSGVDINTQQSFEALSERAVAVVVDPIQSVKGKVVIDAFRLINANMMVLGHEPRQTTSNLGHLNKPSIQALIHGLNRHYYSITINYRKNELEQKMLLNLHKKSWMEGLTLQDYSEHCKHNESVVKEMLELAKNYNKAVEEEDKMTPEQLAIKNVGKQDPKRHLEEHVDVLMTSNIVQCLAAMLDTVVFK
Peroxisome proliferator-activated receptor gamma/Nuclear receptor coactivator 3, sequence (P37231 whole entry): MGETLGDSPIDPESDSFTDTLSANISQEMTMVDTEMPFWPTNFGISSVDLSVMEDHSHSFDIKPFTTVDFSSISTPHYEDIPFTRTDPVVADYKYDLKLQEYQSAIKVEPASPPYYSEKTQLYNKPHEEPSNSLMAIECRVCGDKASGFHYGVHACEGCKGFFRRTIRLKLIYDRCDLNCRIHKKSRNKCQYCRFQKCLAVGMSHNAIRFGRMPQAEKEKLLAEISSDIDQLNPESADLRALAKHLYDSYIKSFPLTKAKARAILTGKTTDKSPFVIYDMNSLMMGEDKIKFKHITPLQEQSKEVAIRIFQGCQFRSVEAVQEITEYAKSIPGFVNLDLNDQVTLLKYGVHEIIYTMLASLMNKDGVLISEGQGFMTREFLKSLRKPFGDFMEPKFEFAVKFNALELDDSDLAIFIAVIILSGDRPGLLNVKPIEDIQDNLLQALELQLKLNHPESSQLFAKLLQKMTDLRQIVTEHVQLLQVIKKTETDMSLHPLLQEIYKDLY
Peroxisome proliferator-activated receptor gamma/Nuclear receptor coactivator 3, sequence (Q9Y6Q9 whole entry, further chain): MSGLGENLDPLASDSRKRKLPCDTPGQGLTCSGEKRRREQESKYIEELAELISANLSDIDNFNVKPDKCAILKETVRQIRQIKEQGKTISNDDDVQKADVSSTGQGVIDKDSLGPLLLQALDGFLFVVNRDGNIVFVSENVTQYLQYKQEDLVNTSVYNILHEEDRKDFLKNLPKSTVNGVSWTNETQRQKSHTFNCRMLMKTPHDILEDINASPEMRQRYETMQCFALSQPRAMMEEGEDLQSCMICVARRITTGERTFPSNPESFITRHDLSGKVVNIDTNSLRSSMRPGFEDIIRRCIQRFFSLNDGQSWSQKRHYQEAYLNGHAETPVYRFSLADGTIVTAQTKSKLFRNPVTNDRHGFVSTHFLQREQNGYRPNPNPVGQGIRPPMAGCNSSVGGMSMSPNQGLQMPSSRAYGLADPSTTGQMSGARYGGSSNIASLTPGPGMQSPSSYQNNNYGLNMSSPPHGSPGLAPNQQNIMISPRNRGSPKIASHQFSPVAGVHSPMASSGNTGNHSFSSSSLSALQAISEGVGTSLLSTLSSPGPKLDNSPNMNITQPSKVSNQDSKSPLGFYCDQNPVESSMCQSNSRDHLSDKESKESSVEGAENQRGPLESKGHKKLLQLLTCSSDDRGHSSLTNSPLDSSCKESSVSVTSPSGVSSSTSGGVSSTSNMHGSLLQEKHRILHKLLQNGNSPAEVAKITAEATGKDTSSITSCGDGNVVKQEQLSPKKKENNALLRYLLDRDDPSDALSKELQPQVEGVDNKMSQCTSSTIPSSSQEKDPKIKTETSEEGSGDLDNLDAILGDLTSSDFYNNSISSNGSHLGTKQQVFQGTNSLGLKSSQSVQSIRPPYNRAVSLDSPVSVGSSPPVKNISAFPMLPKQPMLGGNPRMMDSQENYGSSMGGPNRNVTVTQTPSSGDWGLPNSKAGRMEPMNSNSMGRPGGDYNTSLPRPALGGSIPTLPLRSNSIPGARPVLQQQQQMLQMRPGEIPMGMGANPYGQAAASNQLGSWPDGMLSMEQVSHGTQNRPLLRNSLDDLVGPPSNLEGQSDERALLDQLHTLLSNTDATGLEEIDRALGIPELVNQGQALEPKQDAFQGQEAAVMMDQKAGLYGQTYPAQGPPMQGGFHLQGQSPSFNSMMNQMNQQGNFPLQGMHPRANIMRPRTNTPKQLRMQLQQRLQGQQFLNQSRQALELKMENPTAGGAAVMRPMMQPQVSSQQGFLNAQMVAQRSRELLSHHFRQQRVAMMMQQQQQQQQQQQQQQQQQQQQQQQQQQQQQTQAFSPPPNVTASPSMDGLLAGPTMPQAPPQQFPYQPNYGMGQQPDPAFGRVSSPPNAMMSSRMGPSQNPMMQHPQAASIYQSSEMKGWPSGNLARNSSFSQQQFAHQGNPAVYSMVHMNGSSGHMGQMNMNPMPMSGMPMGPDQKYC

SMILES: Cc1[nH]c(=S)c(C#N)c2c1CCCC2
- IC50 [1]: > 100 µM (inactive)
- IC50 [2]: 5.25 µM (active)

SMILES: COCCCn1c(=N)c(C(=O)NCC2CCCO2)cc2c(=O)n3ccccc3nc21 (stereo not given)
- IC50 (Aminopeptidase N): 60.2 µM (active)

SMILES: CC(NC(=O)C1CCN(C(=O)c2cccs2)CC1)c1ccc(S(N)(=O)=O)cc1 (stereo not given)
- IC50 [3]: 9.98 µM (active)
- IC50 [4]: > 100 µM (inactive)
- IC50 (Prothrombin): > 100 µM (inactive)

SMILES: COc1ccc(NP(=O)(Oc2ccccc2OC)Oc2ccccc2OC)cc1
- EC50 [5]: > 79.4 µM (inactive)
- EC50 [6]: > 79.4 µM (not active)
- EC50 [7]: > 79.4 µM (not active)

SMILES: CN(C)CCCN(C(=O)c1cc(Cl)sc1Cl)c1nc2cc3c(cc2s1)OCO3
- EC50 [8]: > 32 µM (inactive)

SMILES: Cc1cc(C)n2nc(C(=O)NNC(=O)c3ccc(Cl)cc3)nc2n1
- IC50 (Aminopeptidase N): 15.9 µM (active)
- EC50 [9]: > 120 µM (not active)
- EC50 [10]: 12.7 µM (active)
- EC50 (H4): > 120 µM (not active)

SMILES: O=C(OCC(=O)c1ccc(Cl)cc1Cl)c1ccccn1
- EC50 (Beta-galactosidase): > 40 µM (inactive)
- IC50 [11]: 35.9 µM (not active)

SMILES: Cc1cc(C)c2sc(N(CCN(C)C)C(=O)c3cc(Cl)sc3Cl)nc2c1
- EC50 [8]: 26.2 µM (inactive)

SMILES: COc1cccc(N2[C@@H](CC(C)=O)c3ccc(/C=C/C(C)=O)cc3S2(=O)=O)c1
- CC50 (Vero): 17.9 µM (active)

SMILES: c1ccc(CN2CCc3[nH]c4ccccc4c3C2)cc1
- GI50 (SN12K1): 15.2 µM (inactive)

SMILES: Cc1ccc(NS(=O)(=O)c2cc([N+](=O)[O-])ccc2N/N=C/c2sc(N3CCOCC3)nc2-c2ccccc2)c(C)c1
- EC50 (Beta-galactosidase): > 40 µM (inactive)
- IC50 [11]: > 40 µM (not active)
- EC50 [8]: < 0.5 µM (active)
- AC50 (INS1): 4.62 µM (active)

SMILES: Cc1ccc(/N=C/c2c(C)[nH]n(-c3nc4ccccc4[nH]3)c2=O)cc1
- EC50 (BJ [12]): 2.84 µM (inconclusive)
- EC50 (BJ [13]): 3.03 µM (active)
- EC50 (BJ [14]): 3.62 µM (inconclusive)
- EC50 [15]: 2.83 µM (active)
- AC50 [16]: 5.84 µM (active)
- EC50 (BJ [17]): > 133 µM (inactive)
- AC50 (INS1): 1.42 µM (active)
